Data: ChEMBL document CHEMBL1201862, “PubChem BioAssay data set” (2004)
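The compound was tested at five concentrations on cells cultured in 96-well plates, with a 48-hour exposure period. GI50 = concentration required for 50% inhibition of growth.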 Active and inactive are the calls of the source. Cut-off read from the data, not from the text of the source: active = GI50 up to about 1.1 µM and inactive = higher.

Legend:
Assay in all cases: DTP human tumour cell line panel, 48 h
786-0 = tested on: 786-0
ACHN = tested on: ACHN
DU-145 = tested on: DU-145
HCC 2998 = tested on: HCC 2998
HOP-92 = tested on: HOP-92
LOX IMVI = tested on: LOX IMVI
M14 = tested on: M14
MDA-MB-435 = tested on: MDA-MB-435
NCI-H226 = tested on: NCI-H226
NCI-H23 = tested on: NCI-H23
NCI/ADR-RES = tested on: NCI/ADR-RES
OVCAR-4 = tested on: OVCAR-4
SF-539 = tested on: SF-539
SN12C = tested on: SN12C
TK-10 = tested on: TK-10
U-251 = tested on: U-251
UACC-62 = tested on: UACC-62
CCRF-CEM = tested on: CCRF-CEM
HL-60 = tested on: HL-60

Measured: GI50

CC1=CC(C)(C)Nc2ccc(CSc3ccccc3)cc21
inactive: 786-0 23.2 µM | ACHN 46.6 µM | DU-145 22.8 µM | HCC 2998 17.2 µM | HOP-92 34.8 µM | LOX IMVI 30.7 µM | M14 26.6 µM | MDA-MB-435 25.3 µM | NCI-H226 48.4 µM | NCI-H23 32.6 µM | NCI/ADR-RES 41.9 µM | OVCAR-4 21.1 µM | SF-539 44.8 µM | SN12C 19.1 µM | TK-10 39.5 µM | U-251 31.8 µM | UACC-62 41.1 µM

CC12CC(=O)Nc3ccccc3N1C(c1ccccc1)=NO2 (stereo not drawn)
inactive: 786-0 > 100 µM | ACHN > 100 µM | CCRF-CEM > 100 µM | DU-145 > 100 µM | HCC 2998 > 100 µM | HL-60 > 100 µM | HOP-92 > 100 µM | M14 > 100 µM | MDA-MB-435 > 100 µM | NCI-H226 > 100 µM | NCI-H23 > 100 µM | NCI/ADR-RES > 100 µM | OVCAR-4 > 100 µM | SF-539 > 100 µM | SN12C > 100 µM | TK-10 > 100 µM | U-251 > 100 µM | UACC-62 > 100 µM

CC(C)N(/C(F)=N\C(=O)Nc1ccccc1C(F)(F)F)C(C)C
inactive: 786-0 69 µM | ACHN 39.4 µM | CCRF-CEM 37.9 µM | HCC 2998 31.3 µM | HL-60 31 µM | HOP-92 22.5 µM | LOX IMVI 32 µM | M14 47.6 µM | NCI-H226 > 100 µM | NCI-H23 67 µM | NCI/ADR-RES 41.5 µM | SF-539 92 µM | SN12C 37.2 µM | TK-10 52.5 µM | U-251 43.4 µM | UACC-62 > 10 µM

CCOc1ccc(/N=C/c2c3ccccc3nc3ccccc23)cc1
inactive: 786-0 39.7 µM | ACHN 62.1 µM | CCRF-CEM 3.59 µM | HCC 2998 > 100 µM | HL-60 11 µM | HOP-92 > 100 µM | LOX IMVI 40.1 µM | M14 55.2 µM | NCI-H226 > 100 µM | NCI-H23 54 µM | OVCAR-4 70 µM | SF-539 65.6 µM | SN12C > 100 µM | TK-10 83 µM | U-251 > 100 µM | UACC-62 95.3 µM

S=c1sc2c(S)nc(S)nc2n1-c1ccccc1
inactive: 786-0 > 100 µM | ACHN > 100 µM | CCRF-CEM 80.2 µM | HCC 2998 > 100 µM | HL-60 > 100 µM | HOP-92 42.4 µM | LOX IMVI > 100 µM | M14 > 100 µM | NCI-H226 > 100 µM | NCI-H23 > 100 µM | OVCAR-4 > 100 µM | SF-539 > 100 µM | SN12C > 100 µM | TK-10 > 100 µM | U-251 > 100 µM | UACC-62 > 100 µM
